Tested on: H358 lung cancer cells
Test: [3H]-thymidine incorporation (DNA synthesis) assay in H358 cells
Format: cell-based
Protocol: (A) Structures of 1a, and the acetylated side chain of a lysine residue within the polypeptide chain of a protein targeted by the acetylating enzyme (R1 and R2 are the main chain elements on both sides of the lysyl residue). (B) [^3H]-thymidine incorporation into DNA of H358 cells pulsed for 6 hrs at three different time points after the addition of increasing concentrations of 1a, i.e., at 6-12 hrs (12 hr curve), at 18-24 hours (24 hr curve), or at 42-48 hrs (48 hr curve). Incorporation is represented as a percentage relative to control (untreated) cells. (C) Cell cycle analysis of propidium iodide-stained cells harvested at various times after addition of 50 μM 1a. % of cells in G1, S, and G2 represents the average of two independent profiles. (D) Western analysis of histone H3 lysine 9 acetylation, histone H3 lysine 56 acetylation, histone H3 lysine 9 methylation, and total histone H3, before “c” or at the indicated times after addition of 50 μM 1a. Each lane represents 60 μg cellular protein.
Control cells were left untreated. […] Control cells were left untreated.
Cells were either labeled immediately before treatment (starting DNA synthesis rate), or subjected to the indicated treatments and then pulsed on successive days until day 4. DNA synthesis is represented as the percent of starting DNA synthesis rate. Viability was determined for each treatment condition 24 hours post-start of treatment by the trypan blue exclusion assay, with percentages of viable cells indicated to the right of the graph.
H358 cells (2,000/well) in 96-well plates were treated with 1, 10 or 50 μM of spd-1a, spd-2a, spd-3a, spm3, or spm2 for 12 hours. Triplicate wells of cells were pulsed 6 hours with 0.5 μCi [^3H]-thymidine (NEN, Boston Mass.) post-start of drug treatment, and harvested onto filter paper using a Brandel Harvester and subjected to scintillation counting. Untreated cells were pulsed from 0-6 hrs to establish the initial rate of incorporation.
Cells were plated in 96-well plates (2000 cells per well to insure conditions for exponential growth for untreated cells over the time course of the experiment) and exposed to the following treatments: 1a (50 μM); camptothecin (Sigma, St Louis, Mo. 5 nM, 18 hours); cisplatin (Platinol, obtained through local pharmacies, 2 μM, 1 hour 15 minutes), 5-fluorouracil (5FU, Adrucil™, obtained through local pharmacies, 2 μM, 1 hour 15 minutes), Taxotere (provided by the late Dr. Pierre Potier, 5 nM, 18 hours). UVC treatment (40 J/m^2) using a Stratalinker™, Stratagene, La Jolla, Calif.) was carried using medium lacking phenol red. At 0-6 hr, 18-24 hr (day 1), 42-48 hr […], 66-72 hr (day 3), and 90-96 hr (day 4) post-start of treatment, triplicate wells were incubated with 0.5 μCi [^3H]-thymidine (NEN, Boston Mass.), harvested onto filter paper, and subjected to scintillation counting. Trypan blue exclusion assays for cell membrane integrity were carried out as known in the art.
The present inventors used 96-well viability assays as described in Saadatmandi et al (Cancer Gene Therapy (2002) 9:[…]) to examine the effect of 1a on DNA synthesis in H358 cells, as well as the combined effects of 1a and chemotherapeutic agents. H358 cells were plated in 96-well plates at 3000 cells per well. […]

SMILES	sensitization to 5-FU (50 μM 1a + 5FU 2 μM)	inhibition of DNA synthesis (1, 10 or 50 μM, 12 hours)
CC(C)(COP(=O)(O)OP(=O)(O)OC[C@H]1O[C@@H](n2cnc3c(N)ncnc32)[C@H](O)[C@@H]1OP(=O)(O)O)[C@@H](O)C(=O)NCCC(=O)NCCSCC(=O)NCCCNCCCCN [1a, spermidine[N1]-CoA]	sensitized	–
CC(=O)NCCSCC(=O)NCCCNCCCCNCCCN [spm-3]	–	inhibit DNA synthesis

Source: patent US10617656B2, “Methods of increasing the cytotoxicity of chemotherapeutic agents with multisubstrate inhibitors of histone, protein-Lys, polyamine acetylation, and polyamine metabolism” (Vanderbilt University, priority 2010, dated 2020)
